The values below come from patent US20260028365A1 (BIOGEN MA INC., priority 2022, published 2026).

pIC50: −log10 of the molar value. Bounds are passed on as bounds.

What is called pIC50 is −log10 of the IC50, conventionally taken in molar units. A higher pIC50 goes with a low IC50.

Chain of JH2 domain of human Tyk2 (P29597 575-876): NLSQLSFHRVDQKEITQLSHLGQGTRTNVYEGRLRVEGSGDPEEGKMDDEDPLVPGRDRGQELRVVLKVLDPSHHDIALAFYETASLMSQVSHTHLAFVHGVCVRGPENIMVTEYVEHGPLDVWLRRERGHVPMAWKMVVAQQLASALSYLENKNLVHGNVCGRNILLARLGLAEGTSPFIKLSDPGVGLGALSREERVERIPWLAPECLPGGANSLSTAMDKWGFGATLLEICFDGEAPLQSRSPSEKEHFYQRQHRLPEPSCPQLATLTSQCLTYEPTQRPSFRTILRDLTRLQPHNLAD

The target in one experiment is JH2 domain of human Tyk2 (Homo sapiens (Human), UniProt P29597). In words: JH2 Biochemical Assay (TR-FRET probe displacement). The conditions noted are these: JH2 domain of human Tyk2, TR-FRET probe displacement. Type of experiment: binding. As for the experimental part:
The inhibitory potency of compounds of the disclosure against the kinase activity of recombinantly generated JH2 domain of human Tyk2 was evaluated in a plate-based assay using a TR-FRET assay platform. Briefly, 2 nM of recombinant JH2 domain [10×His-tagged TYK2 JH2 domain (amino acid 575-876)] was combined with 2 nM probe ((S)-6-amino-9-(2-carboxy-4-((1-(3-(8-methyl-5-(methylamino)-8H-imidazo[4,5-d]thiazolo[5,4-b]pyridin-2-yl)phenyl)ethyl)carbamoyl)phenyl)-3-iminio-5-sulfo-3H-xanthene-4-sulfonate), 0.1 nM Tb-labeled anti-His antibody, and compounds of disclosure for 60 minutes. Compounds are tested at either 10 μM or 1 μM top concentration, 10 points of 3-fold dilution. The TR-FRET signal inversely correlates to the amount of probe displaced by compounds and signal was calculated by taking the ratio of fluorescence at 520 nm and 495 nm. The data was normalized and the percent activity versus log concentration of compound was fitted with a 4-parameter logistic model to generate IC50 curves.
A general note: In TR-FRET formats the signal depends on donor and acceptor labels being close together.
For the compound `CC(=O)Nc1cc(Nc2ccnc(C(C)(F)F)n2)c(-c2csc(C(C)(C)F)n2)cn1` [Example 713, N-(4-((2-(1,1-difluoroethyl)pyrimidin-4-yl)amino)-5-(2-(2-fluoropropan-2-yl)thiazol-4-yl)pyridin-2-yl)acetamide], the pIC50 is no less than 8.00. `CC(=O)Nc1cc(Nc2cc(C)nc(C(C)(F)F)n2)c(-c2cc(CN3CCOCC3)n(C)n2)cn1` [Example 739, N-(4-((2-(1,1-difluoroethyl)-6-methylpyrimidin-4-yl)amino)-5-(1-methyl-5-(morpholinomethyl)-1H-pyrazol-3-yl)pyridin-2-yl)acetamide]: the pIC50 was no less than 8.00. Consider `CC(=O)Nc1cc(Nc2cc(C)nc(C(C)(F)F)n2)c(-c2cnc(C(C)N3CCCC3)cn2)cn1` (stereo not drawn) [Example 742, N-(4-((2-(1,1-difluoroethyl)-6-methylpyrimidin-4-yl)amino)-5-(5-(1-(pyrrolidin-1-yl)ethyl)pyrazin-2-yl)pyridin-2-yl)acetamide], for which the pIC50 is no less than 8.00. The compound `COc1cc(C)nc(-c2cnc(NC(C)=O)cc2Nc2cc(C)nc(C(C)(F)F)n2)n1` [Example 621, N-(4-((2-(1,1-difluoroethyl)-6-methylpyrimidin-4-yl)amino)-5-(4-methoxy-6-methylpyrimidin-2-yl)pyridin-2-yl)acetamide] gave a pIC50 of 7.00 to 8.00.

On to `CC(=O)Nc1cc(Nc2ccnc(C(C)(F)F)n2)c(-c2nnc(C3CC3)o2)cn1` [Example 717, N-(5-(5-cyclopropyl-1,3,4-oxadiazol-2-yl)-4-((2-(1,1-difluoroethyl)pyrimidin-4-yl)amino)pyridin-2-yl)acetamide], for which the pIC50 was no less than 8.00. Same read-out and setting: next, `COc1nc(C)cc(Nc2cc(NC(C)=O)ncc2OC)n1` [Example 452, N-(5-methoxy-4-((2-methoxy-6-methylpyrimidin-4-yl)amino)pyridin-2-yl)acetamide]: 7.00 to 8.00. The compound `COc1ccc(-c2cnc(NC(C)=O)cc2Nc2cc(C)nc(C(C)(F)F)n2)nc1F` [Example 622, N-(4′-((2-(1,1-difluoroethyl)-6-methylpyrimidin-4-yl)amino)-6-fluorO5-methoxy-[2,3′-bipyridin]-6′-yl)acetamide] showed a pIC50 of no less than 8.00. In turn, `COc1cnc(NC(C)=O)cc1Nc1cc(-c2cc(C)c3nc(C)nn3c2)nc(C(C)(F)F)n1` [Example 397, N-(4-((2-(1,1-difluoroethyl)-6-(2,8-dimethyl-[1,2,4]triazolo[1,5-a]pyridin-6-yl)pyrimidin-4-yl)amino)-5-methoxypyridin-2-yl)acetamide] had a pIC50 of no less than 8.00.

`COc1cnc(NC(C)=O)cc1Nc1cc(OC2CC2)nc(C(F)(F)F)n1` [Example 437, N-(4-((6-cyclopropoxy-2-(trifluoromethyl)pyrimidin-4-yl)amino)-5-methoxypyridin-2-yl)acetamide] had a pIC50 of 7.00 to 8.00.

`CC(=O)Nc1cc(Nc2ccnc(C(C)(F)F)n2)c(-n2cnc(C)n2)cn1` [Example 734, N-(4-((2-(1,1-difluoroethyl)pyrimidin-4-yl)amino)-5-(3-methyl-1H-1,2,4-triazol-1-yl)pyridin-2-yl)acetamide] had a pIC50 of 6.00 to 7.00. In turn, `CC(=O)Nc1cc(Nc2cc(C)nc(C(C)(F)F)n2)c(-c2nc(C)ns2)cn1` [Example 618, N-(4-((2-(1,1-difluoroethyl)-6-methylpyrimidin-4-yl)amino)-5-(3-methyl-1,2,4-thiadiazol-5-yl)pyridin-2-yl)acetamide] gave a pIC50 of no less than 8.00. On the same count and under the same terms, next, `CC(=O)Nc1cc(Nc2cc(C)nc(C(C)(F)F)n2)c(-n2cnc(C)n2)cn1` [Example 735, N-(4-((2-(1,1-difluoroethyl)-6-methylpyrimidin-4-yl)amino)-5-(3-methyl-1H-1,2,4-triazol-1-yl)pyridin-2-yl)acetamide]: 7.00 to 8.00. `CC(=O)Nc1cc(Nc2ccnc(C(C)(F)F)n2)c(-n2cc(C#N)cn2)cn1` [Example 732, N-(5-(4-cyanO1H-pyrazol-1-yl)-4-((2-(1,1-difluoroethyl)pyrimidin-4-yl)amino)pyridin-2-yl)acetamide] had a pIC50 of 7.00 to 8.00. Consider `CC(=O)Nc1cc(Nc2cc(C)nc(C(C)(F)F)n2)c(N(C)C)cn1` [Example 725, N-(4-((2-(1,1-difluoroethyl)-6-methylpyrimidin-4-yl)amino)-5-(dimethylamino)pyridin-2-yl)acetamide], for which the pIC50 was 6.00 to 7.00.

Staying with this experiment, now noted: TR-FRET probe displacement, JH2 domain.
For the compound `CC(=O)Nc1cc(Nc2cc(C)nc(C(C)(F)F)n2)c(-c2nc(CN3CCN(C)CC3)cs2)cn1` [Example 785, N-(4-((2-(1,1-difluoroethyl)-6-methylpyrimidin-4-yl)amino)-5-(4-((4-methylpiperazin-1-yl)methyl)thiazol-2-yl)pyridin-2-yl)acetamide], the negative logarithm of the IC50 (pIC50) was no less than 8.00.

The experiment is the same for the next values; noted with them: TR-FRET probe displacement, JH2 domain of human Tyk2.
With `CC(=O)Nc1cc(Nc2cc(C)nc(C(C)(F)F)n2)c(OCc2ncsc2C)cn1` [Example 329, N-(4-((2-(1,1-difluoroethyl)-6-methylpyrimidin-4-yl)amino)-5-((5-methylthiazol-4-yl)methoxy)pyridin-2-yl)acetamide], the pIC50 is 7.00 to 8.00. Regarding `CC(=O)Nc1cc(Nc2cc(C)nc(C(C)(F)F)n2)c(OCC2(CF)CCOCC2)cn1` [Example 340, N-(4-((2-(1,1-difluoroethyl)-6-methylpyrimidin-4-yl)amino)-5-((4-(fluoromethyl)tetrahydro-2H-pyran-4-yl)methoxy)pyridin-2-yl)acetamide], the pIC50 was 7.00 to 8.00. The same measure, in the same setting: next, `COCCCc1cnc(NC(C)=O)cc1Nc1cc(C)nc(C(C)(F)F)n1` [Example 152, N-(4-((2-(1,1-difluoroethyl)-6-methylpyrimidin-4-yl)amino)-5-(3-methoxypropyl)pyridin-2-yl)acetamide]: 7.00 to 8.00; `CCc1cc(Nc2cc(NC(C)=O)ncc2-c2ccc(OC)nn2)nc(C(C)(F)F)n1` [Example 220, N-(4-((2-(1,1-difluoroethyl)-6-ethylpyrimidin-4-yl)amino)-5-(6-methoxypyridazin-3-yl)pyridin-2-yl)acetamide]: no less than 8.00. For the compound `CC(=O)Nc1cc(Nc2cc(C)nc(C(C)(F)F)n2)c(C(C)C)cn1` [Example 44, N-(4-((2-(1,1-difluoroethyl)-6-methylpyrimidin-4-yl)amino)-5-isopropylpyridin-2-yl)acetamide], the pIC50 was 7.00 to 8.00.

For the compound `CC(=O)Nc1cc(Nc2cc(C)nc(C(C)(F)F)n2)c(-c2nc3c(s2)CN(CC#N)CC3)cn1` [Example 285, N-(5-(5-(cyanomethyl)-4,5,6,7-tetrahydrothiazolo[5,4-c]pyridin-2-yl)-4-((2-(1,1-difluoroethyl)-6-methylpyrimidin-4-yl)amino)pyridin-2-yl)acetamide], the pIC50 is no less than 8.00.

On to `CCc1cc(Nc2cc(NC(C)=O)ncc2-c2noc(C)n2)nc(C(C)(F)F)n1` [Example 170, N-(4-((2-(1,1-difluoroethyl)-6-ethylpyrimidin-4-yl)amino)-5-(5-methyl-1,2,4-oxadiazol-3-yl)pyridin-2-yl)acetamide], for which the pIC50 is 7.00 to 8.00. `CC(=O)Nc1cc(Nc2cc(C)nc(C(C)(F)F)n2)c(-c2cc(C(C)(C)C#N)ncn2)cn1` [Example 241, N-(5-(6-(2-cyanopropan-2-yl)pyrimidin-4-yl)-4-((2-(1,1-difluoroethyl)-6-methylpyrimidin-4-yl)amino)pyridin-2-yl)acetamide] showed a pIC50 of 6.00 to 7.00. Turning to `CCOc1cnc(NC(C)=O)cc1N(C)c1cc(C)nc(C(C)(F)F)n1` [Example 54, N-(4-((2-(1,1-difluoroethyl)-6-methylpyrimidin-4-yl)(methyl)amino)-5-ethoxypyridin-2-yl)acetamide], the pIC50 was no more than 6.00. Compound `CC(=O)Nc1cc(Nc2ccnc(C(C)(F)F)c2)c(-c2cc(C)ncn2)cn1` [Example 199, N-(4-((2-(1,1-difluoroethyl)pyridin-4-yl)amino)-5-(6-methylpyrimidin-4-yl)pyridin-2-yl)acetamide] had a pIC50 of 7.00 to 8.00. The compound `CC(=O)Nc1cc(Nc2cc(C)nc(C(C)(F)F)n2)c(OCC2(C)CCOCC2)cn1` [Example 317, N-(4-((2-(1,1-difluoroethyl)-6-methylpyrimidin-4-yl)amino)-5-((4-methyltetrahydro-2H-pyran-4-yl)methoxy)pyridin-2-yl)acetamide] had a pIC50 of no less than 8.00. Take `CCOc1cnc(NC(=O)C2CC2)cc1Nc1cc(C)nc(C(C)(F)F)n1` [Example 28, N-(4-((2-(1,1-difluoroethyl)-6-methylpyrimidin-4-yl)amino)-5-ethoxypyridin-2-yl)cyclopropanecarboxamide]: the pIC50 is 7.00 to 8.00. Take `CCOc1cnc(NC(C)=O)cc1Nc1cc(C(C)(F)F)ncn1` [Example 33, N-(4-((6-(1,1-difluoroethyl)pyrimidin-4-yl)amino)-5-ethoxypyridin-2-yl)acetamide]: the pIC50 is 6.00 to 7.00.

Compound `CC(=O)Nc1cc(Nc2cc(C)nc(C(C)(F)F)n2)c(CCCN(C)C)cn1` [Example 151, N-(4-((2-(1,1-difluoroethyl)-6-methylpyrimidin-4-yl)amino)-5-(3-(dimethylamino)propyl)pyridin-2-yl)acetamide] had a pIC50 of 6.00 to 7.00. On to `CC(=O)Nc1cc(Nc2cc(C)nc(C(C)(F)F)n2)c(-c2cc(N3CCN(C)CC3)ncn2)cn1` [Example 248, N-(4-((2-(1,1-difluoroethyl)-6-methylpyrimidin-4-yl)amino)-5-(6-(4-methylpiperazin-1-yl)pyrimidin-4-yl)pyridin-2-yl)acetamide], for which the pIC50 is 7.00 to 8.00.
